Each molecule was assayed against M. tuberculosis cytochrome bd-I (Mycobacterium tuberculosis, UniProt L7N662) (assay: not given). Details: not given.
M. tuberculosis cytochrome bd-I, sequence (L7N662 1-485): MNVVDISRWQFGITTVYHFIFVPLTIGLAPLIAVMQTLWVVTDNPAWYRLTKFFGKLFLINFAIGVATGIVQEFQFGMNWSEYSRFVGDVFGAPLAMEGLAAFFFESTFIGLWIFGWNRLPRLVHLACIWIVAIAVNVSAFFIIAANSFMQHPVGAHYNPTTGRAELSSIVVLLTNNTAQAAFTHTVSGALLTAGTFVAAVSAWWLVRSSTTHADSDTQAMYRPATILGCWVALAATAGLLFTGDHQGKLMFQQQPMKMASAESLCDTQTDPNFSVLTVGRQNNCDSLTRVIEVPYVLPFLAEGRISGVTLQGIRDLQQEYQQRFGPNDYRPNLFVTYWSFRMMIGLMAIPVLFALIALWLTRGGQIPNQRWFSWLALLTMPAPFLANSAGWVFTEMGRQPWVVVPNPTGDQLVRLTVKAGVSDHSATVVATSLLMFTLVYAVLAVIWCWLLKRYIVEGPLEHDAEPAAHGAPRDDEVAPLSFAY
Type: biochemical
In the case of `CCOC(=O)c1c(-c2ccc(-c3ccc(Cl)cc3)cc2)[nH]c2ccccc2c1=O` [WDH-1V-9, Ethyl 2-(4′-chloro-[1,1′-biphenyl]-4-yl)-4-oxo-1,4-dihydroquinoline-3-carboxylate], the “inhibition @ 1 uM (% of cntls)” value is reported as 87.5 % of cntls. `CCOC(=O)c1c(-c2ccc(-c3ccc(OC(F)(F)F)cc3)cc2)[nH]c2ccccc2c1=O` [WDH-1V-10, Ethyl 4-oxo-2-(4′-(trifluoromethoxy)-[1,1′-biphenyl]-4-yl)-1,4-dihydroquinoline-3-carboxylate] was tested, and the “inhibition @ 1 uM (% of cntls)” value was 79.4 % of cntls.

The molecules below were run on M. tuberculosis H37Rv (assay: M. tuberculosis H37Rv growth inhibition screen at fixed 5 μM). Details: 5 μM compound.
Type: cell-based, Mycobacterium tuberculosis
With `Cc1c(-c2ccc(N3CCCCC3)cc2)[nH]c2cc(F)cc(F)c2c1=O` [MTD-403, 5,7-Difluoro-3-methyl-2-(4-(piperidin-1-yl)phenyl)quinolin-4(1H)-one] the “Growth of M. tuberculosis H37Rv (aerobic) at 5 μM of [compounds]” value was “No growth”. In the case of `COc1ccc2c(=O)c(C)c(-c3ccc(N4CCCCC4)cc3)[nH]c2c1` [RKA-310, 7-methoxy-3-methyl-2-(4-(piperidin-1-yl)phenyl)quinolin-4(1H)-one], the “Growth of M. tuberculosis H37Rv (aerobic) at 5 μM of [compounds]” value is reported as “No growth”.

Same assay, conditions: Mycobacterium tuberculosis, H37RV; aerobic; 5 μM compound; read-out: Growth of M. tuberculosis H37Rv (aerobic) at 5 μM of [compounds]
Molecule `Cc1c(-c2ccc(Oc3ccc(F)cc3)nc2)[nH]c2ccccc2c1=O` [CK-3-14, 2-(6-(4-Fluorophenoxy)pyridin-3-yl)-3-methylquinolin-4(1H)-one] has an activity at 5 µM of 100%. With `COc1c(C)c(-c2ccc(Cc3ccccc3)cc2)nc2ccccc12` [CK-3-23, 2-(4-Benzylphenyl)-4-methoxy-3-methylquinoline] the activity at 5 µM was 6.6%. Molecule `CCOC(=O)c1c(-c2ccc(Cc3ccc(OC(F)(F)F)cc3)cc2)[nH]c2ccccc2c1=O` [GN-1710, Ethyl 4-oxo-2-(4-(4-(trifluoromethoxy)benzyl)phenyI)-1,4-dihydroquinoline-3-carboxylate] has an activity at 5 µM of 100%. `Cc1c(-c2ccc(-c3ccc(C(F)(F)F)nc3)nc2)[nH]c2ccccc2c1=O` [PG-128, 3-Methyl-2-(6′-(trifluoromethyl)-[2,3′-bipyridin]-5-yl)quinolin-4(1H)-one] gave an activity at 5 µM of 95.6%. With `Cc1[nH]c2ccccc2c(=O)c1-c1ccc(Oc2ccc(OC(F)(F)F)cc2)cc1` [PG-203, 2-Methyl-3-(4-(4-(trifluoromethoxy)phenoxy)phenyl)quinolin-4(1H)-one] the activity at 5 µM was 100%. `O=c1cc(-c2ccc(Cc3ccc(OC(F)(F)F)cc3)cc2)n(O)c2ccccc12` [RKA-73, 1-Hydroxy-2-(4-(4-(trifluoromethoxy)benzyl)phenyl)quinolin-4(1H)-one] gave an activity at 5 µM of 100%. In the case of `COc1ccc2c(=O)c(C)c(-c3ccc(Oc4ccc(OC(F)(F)F)cc4)nc3)[nH]c2c1` [RKA-259, 7-Methoxy-3-methyl-2-(6-(4-(trifluoromethoxy)phenoxy)pyridin-3-yl)quinolin-4(1H)-one], the activity at 5 µM is reported as 12.6%. `Cc1c(-c2ccc(N3CCCCC3)cc2)[nH]c2ccccc2c1=O` [RKA-307, 3-Methyl-2-(4-(piperidin-1-yl)phenyl)quinolin-4(1H)-one] was tested, and the activity at 5 µM was 1.8%. `CCOC(=O)c1c(-c2ccc(-c3ccc(Cl)cc3)cc2)[nH]c2ccccc2c1=O` [WDH-1U-10, Ethyl 2-(4′-chloro-[1,1′-biphenyl]-4-yl)-4-oxo-1,4-dihydroquinoline-3-carboxylate] showed an activity at 5 µM of 82.2%. For `O=c1cc(-c2cnn(Cc3ccc(OC(F)(F)F)cc3)c2)[nH]c2ccccc12` [WDH-1W-5, 2-(1-(4-(Trifluoromethoxy)benzyl)-1H-pyrazol-4-yl)quinolin-4(1H)-one], the activity at 5 µM was 61.3%. With `Cc1c(-c2cnn(Cc3ccc(OC(F)(F)F)cc3)c2)[nH]c2ccccc2c1=O` [WDH-2A-9, 3-Methyl-2-(1-(4-(trifluoromethoxy)benzyl)-1H-pyrazol-4-yl)quinolin-4(1H)-one] the activity at 5 µM was 97.4%.

The molecules below were run on Mycobacterium tuberculosis (Mtb) H37Rv (assay: MGIT growth inhibition assay, time to positivity). Details: Table 6; compounds at 5x IC90; drug free control 11; followed to 74 days.
Type: cell-based
`Cc1ccc2nc(C)c(C(=O)NCc3ccc(Oc4ccc(F)cc4)cc3)n2c1` [AWE 402] was tested, and the “Time to Positivity” value was 15 days. For `NNC(=O)c1ccncc1` [INH, Isoniazid], the “Time to Positivity” value was “No effect at 74 days”.

Same assay, conditions: Table 7 / FIG. 9; compounds at 5x IC90; 7.5×10^5 Mtb cells per tube; drug free control 8; followed to 80 days
`NNC(=O)c1ccncc1` [INH, Isoniazid] was tested, and the “Time to Positivity” value was “No effect”.

Same assay, conditions: Table 8; WDH-2G-6 3 μM, MTC420 5.5 μM, lansoprazole sulphide 26.5 μM, TMC207 250 nM; media control 10
`Cc1ccc2nc(C)c(C(=O)NCc3ccc(Oc4ccc(F)cc4)cc3)n2c1` [AWE 402] showed a Time to Positivity of 13 days.
